The text below walks through data of patent US12679824B2 (Hoffmann-La Roche Inc., priority 2020, dated 2026).

SMILES strings stand for the structures.

The test system of one test is Acinetobacter baumannii ATCC17961. The test is described as follows: 90% Growth Inhibitory Concentration (IC90) determination, antimicrobial susceptibility testing. The settings on record: Acinetobacter baumannii, ATCC17961, 16 h, Acinetobacter baumannii ATCC17961; Iso-Sensitest broth; growth by optical density at 600 nm over 16h; concentration inhibiting 90% of the growth; read-out: ATCC 17961 IC90. In kind it is cell-based. As to the method:
Antimicrobial Susceptibility Testing:
90% Growth Inhibitory Concentration (IC90) Determination
The in vitro antimicrobial activity of the compounds was determined according to the following procedure:
The assay used a 10-points Iso-Sensitest broth medium to measure quantitatively the in vitro activity of the compounds against Acinetobacter baumannii ATCC17961.
Stock compounds in DMSO were serially twofold diluted (e.g. range from 50 to 0.097 μM final concentration) in 384 wells microtiter plates and inoculated with 49 μl the bacterial suspension in Iso-Sensitest medium to have a final cell concentration of ~5×10^(5) CFU/ml in a final volume/well of 50 ul/well. Microtiter plates were incubated at 35±2° C.
Bacterial cell growth was determined with the measurement of optical density at λ=600 nm each 20 minutes over a time course of 16h. Growth inhibition was calculated during the logarithmic growth of the bacterial cells with determination of the concentration inhibiting 50% (IC50) and 90% (IC90) of the growth.
Table 1 provides the 90% growth inhibitory concentrations (IC90) in micromoles per liter of the compounds of present invention obtained against the strain Acinetobacter baumannii ATCC17961.
`Cn1c(-c2cn(-c3ncc(NCCN)cn3)nc2C(F)(F)F)cnc1C(=O)Nc1ccc(C(=O)N2CCN(C(=O)C3CCNCC3)CC2)c(Cl)c1` [Example B2, 5-[1-[5-(2-aminoethylamino)pyrimidin-2-yl]-3-(trifluoromethyl)pyrazol-4-yl]-N-[3-chloro-4-[4-(piperidine-4-carbonyl)piperazine-1-carbonyl]phenyl]-1-methyl-imidazole-2-carboxamide]: the IC90 came to 170 nM.

For the molecule `COCCn1ncc(-n2cc(-c3cnc(C(=O)Nc4ccc(C(=O)N5CCN(C(=O)C6CCNCC6)CC5)c(Cl)c4)n3C)c(C(F)(F)F)n2)c1C` [Example E2, N-[3-chloro-4-[4-(piperidine-4-carbonyl)piperazine-1-carbonyl]phenyl]-5-[1-[1-(2-methoxyethyl)-5-methyl-pyrazol-4-yl]-3-(trifluoromethyl)pyrazol-4-yl]-1-methyl-imidazole-2-carboxamide], the IC90 was 470 nM.

As for `COCCNc1ccc(-n2cc(-c3cnc(C(=O)Nc4ccc(C(=O)N5CCN(C(=O)C6CCNCC6)CC5)c(Cl)c4)n3C)c(C(F)(F)F)n2)nc1` [Example C2, N-[3-chloro-4-[4-(piperidine-4-carbonyl)piperazine-1-carbonyl]phenyl]-5-[1-[5-(2-methoxyethylamino)-2-pyridyl]-3-(trifluoromethyl)pyrazol-4-yl]-1-methyl-imidazole-2-carboxamide], the IC90 was 340 nM.

Turning to `Cn1c(-c2cn(-c3ccc(N)cn3)nc2C(F)(F)F)cnc1C(=O)Nc1ccc(C(=O)NCCCCCN)c(Cl)c1` [Example Z28, N-[4-(5-aminopentylcarbamoyl)-3-chloro-phenyl]-5-[1-(5-amino-2-pyridyl)-3-(trifluoromethyl)pyrazol-4-yl]-1-methyl-imidazole-2-carboxamide], the IC90 turned out to be 360 nM.

As for `Cn1c(-c2cn(-c3ccc(N)cn3)nc2C(F)(F)F)cnc1C(=O)Nc1ccc(C(=O)N2C[C@H]3C[C@@H]2CN3)c(Cl)c1` [Example Z66, 5-[1-(5-amino-2-pyridyl)-3-(trifluoromethyl)pyrazol-4-yl]-N-[3-chloro-4-[(1R,4R)-2,5-diazabicyclo[2.2.1]heptane-2-carbonyl]phenyl]-1-methyl-imidazole-2-carboxamide], the IC90 was 1160 nM.

Regarding `Cc1[nH]ncc1-n1cc(-c2cnc(C(=O)Nc3ccc(C(=O)N4CCN(C(=O)C5CCNCC5)CC4)c(Cl)c3)n2C)c(C(F)(F)F)n1` [Example E5, N-[3-chloro-4-[4-(piperidine-4-carbonyl)piperazine-1-carbonyl]phenyl]-1-methyl-5-[1-(5-methyl-1H-pyrazol-4-yl)-3-(trifluoromethyl)pyrazol-4-yl]imidazole-2-carboxamide], the IC90 turned out to be 1400 nM.

Turning to `CN1CCC(C(=O)N2CCN(C(=O)c3ccc(NC(=O)c4ncc(-c5cn(-c6ccc(N)cn6)nc5C(F)F)n4C)cc3Cl)CC2)CC1` [Example C9, 5-[1-(5-amino-2-pyridyl)-3-(difluoromethyl)pyrazol-4-yl]-N-[3-chloro-4-[4-(1-methylpiperidine-4-carbonyl)piperazine-1-carbonyl]phenyl]-1-methyl-imidazole-2-carboxamide], the concentration for an effect of 90% (IC90) stood at 420 nM.

As to `CN(C)c1ccc(-n2cc(-c3cnc(C(=O)Nc4ccc(C(=O)N5CCN(C(=O)C6CCNCC6)CC5)c(Cl)c4)n3C)c(C(F)(F)F)n2)nn1` [Example B3, N-[3-chloro-4-[4-(piperidine-4-carbonyl)piperazine-1-carbonyl]phenyl]-5-[1-[6-(dimethylamino)pyridazin-3-yl]-3-(trifluoromethyl)pyrazol-4-yl]-1-methyl-imidazole-2-carboxamide], the IC90 was determined as 480 nM.

Consider `Cn1c(-c2cn(-c3cnccn3)nc2C(F)(F)F)cnc1C(=O)Nc1ccc(C(=O)N2CCN(C(=O)C3CCNCC3)CC2)c(Cl)c1` [Example A20, N-[3-chloro-4-[4-(piperidine-4-carbonyl)piperazine-1-carbonyl]phenyl]-1-methyl-5-[1-pyrazin-2-yl-3-(trifluoromethyl)pyrazol-4-yl]imidazole-2-carboxamide], for which the IC90 came out at 480 nM.

As to `Cn1c(-c2cn(-c3ccc(N)cn3)nc2C(F)(F)F)cnc1C(=O)Nc1ccc(C(=O)N2CCCNCC2)c(Cl)c1` [Example Z60, 5-[1-(5-amino-2-pyridyl)-3-(trifluoromethyl)pyrazol-4-yl]-N-[3-chloro-4-(1,4-diazepane-1-carbonyl)phenyl]-1-methyl-imidazole-2-carboxamide], the IC90 was 400 nM.

Consider `Cc1cc(-n2cc(-c3cnc(C(=O)Nc4ccc(C(=O)N5CCN(C(=O)C6CCNCC6)CC5)c(Cl)c4)n3C)c(C(F)(F)F)n2)ncc1N` [Example Z82, 5-[1-(5-amino-4-methyl-2-pyridyl)-3-(trifluoromethyl)pyrazol-4-yl]-N-[3-chloro-4-[4-(piperidine-4-carbonyl)piperazine-1-carbonyl]phenyl]-1-methyl-imidazole-2-carboxamide], for which the IC90 is 340 nM.

Regarding `Cn1cnc(-n2cc(-c3cnc(C(=O)Nc4ccc(C(=O)N5CCN(C(=O)C6CCNCC6)CC5)c(Cl)c4)n3C)c(C(F)(F)F)n2)c1` [Example E4, N-[3-chloro-4-[4-(piperidine-4-carbonyl)piperazine-1-carbonyl]phenyl]-1-methyl-5-[1-(1-methylimidazol-4-yl)-3-(trifluoromethyl)pyrazol-4-yl]imidazole-2-carboxamide], the concentration for an effect of 90% (IC90) amounted to 680 nM.

With `Cn1c(-c2cn(-c3ccc(N)cn3)nc2C(F)(F)F)cnc1C(=O)Nc1ccc(C(=O)N2CC3CNCC3C2)c(Cl)c1` (stereo not drawn) [Example Z12, N-[4-(2,3,3a,4,6,6a-hexahydro-1H-pyrrolo[3,4-c]pyrrole-5-carbonyl)-3-chloro-phenyl]-5-[1-(5-amino-2-pyridyl)-3-(trifluoromethyl)pyrazol-4-yl]-1-methyl-imidazole-2-carboxamide], the IC90 turned out to be 930 nM.

As to `Cn1c(-c2cn(-c3ccc(N)cn3)nc2C(F)(F)F)cnc1C(=O)Nc1ccc(C(=O)N2C3CNCC2C3)c(Cl)c1` [Example Z55, 5-[1-(5-amino-2-pyridyl)-3-(trifluoromethyl)pyrazol-4-yl]-N-[3-chloro-4-(3,6-diazabicyclo[3.1.1]heptane-6-carbonyl)phenyl]-1-methyl-imidazole-2-carboxamide], the IC90 came out at 340 nM.

On to `Cn1c(-c2cn(-c3ccc(N)cn3)nc2C(F)(F)F)cnc1C(=O)Nc1ccc(C(=O)NC2(CO)CCNC2)c(Cl)c1` (stereo not drawn) [Example Z5, 5-[1-(5-amino-2-pyridyl)-3-(trifluoromethyl)pyrazol-4-yl]-N-[3-chloro-4-[(3-methylolpyrrolidin-3-yl)carbamoyl]phenyl]-1-methyl-imidazole-2-carboxamide], for which the 90% effect concentration (IC90) is 1800 nM.

For `CN(C(=O)c1ccc(NC(=O)c2ncc(-c3cn(-c4ccc(N)cn4)nc3C(F)(F)F)n2C)cc1Cl)C1CCNCC1` [Example Z13, 5-[1-(5-amino-2-pyridyl)-3-(trifluoromethyl)pyrazol-4-yl]-N-[3-chloro-4-[methyl(4-piperidyl)carbamoyl]phenyl]-1-methyl-imidazole-2-carboxamide], the IC90 worked out at 420 nM.

Staying with this test, now noted: Acinetobacter baumannii, ATCC17961, 16 h, read-out: ATCC 17961 IC90.
With `COCCn1cc(-n2cc(-c3cnc(C(=O)Nc4ccc(C(=O)N5CCN(C(=O)C6CCNCC6)CC5)c(Cl)c4)n3C)c(C(F)(F)F)n2)cn1` [Example E1, N-[3-chloro-4-[4-(piperidine-4-carbonyl)piperazine-1-carbonyl]phenyl]-5-[1-[1-(2-methoxyethyl)pyrazol-4-yl]-3-(trifluoromethyl)pyrazol-4-yl]-1-methyl-imidazole-2-carboxamide], the IC90 came to 880 nM.

On to `Cn1c(-c2cn(-c3ccc(N)cn3)nc2C(F)(F)F)cnc1C(=O)Nc1ccc(C(=O)N2CCN(C(=O)C3CCNCC3)CC2)c(Cl)c1` [Example C1, 5-[1-(5-Amino-2-pyridyl)-3-(trifluoromethyl)pyrazol-4-yl]-N-[3-chloro-4-[4-(piperidine-4-carbonyl)piperazine-1-carbonyl]phenyl]-1-methyl-imidazole-2-carboxamide], for which the IC90 is 220 nM.

`Cn1c(-c2cn(-c3ccc(N)cn3)nc2C(F)(F)F)cnc1C(=O)Nc1ccc(C(=O)NC23CC(NC(=O)[C@@H]4C[C@@H](O)CN4)(C2)C3)c(Cl)c1` [Example Z47, 5-[1-(5-amino-2-pyridyl)-3-(trifluoromethyl)pyrazol-4-yl]-N-[3-chloro-4-[[3-[[(2S,4R)-4-hydroxyprolyl]amino]-1-bicyclo[1.1.1]pentanyl]carbamoyl]phenyl]-1-methyl-imidazole-2-carboxamide]: the IC90 worked out at 580 nM.

As for `Cn1c(-c2cn(-c3ncccn3)nc2C(F)(F)F)cnc1C(=O)Nc1ccc(C(=O)N2CCN(C(=O)C3CCN(CC4CNC4)CC3)CC2)c(Cl)c1` [Example G1, N-[4-[4-[1-(Azetidin-3-ylmethyl)piperidine-4-carbonyl]piperazine-1-carbonyl]-3-chloro-phenyl]-1-methyl-5-[1-pyrimidin-2-yl-3-(trifluoromethyl)pyrazol-4-yl]imidazole-2-carboxamide], the IC90 was found to be 390 nM.

Take `Cn1c(-c2cn(-c3ccc(N)cn3)nc2C(F)(F)F)cnc1C(=O)Nc1ccc(C(=O)N2CCC(CNC(=O)[C@@H]3C[C@@H](O)CN3)CC2)c(Cl)c1` [Example Z45, 5-[1-(5-amino-2-pyridyl)-3-(trifluoromethyl)pyrazol-4-yl]-N-[3-chloro-4-[4-[[[(2S,4R)-4-hydroxyprolyl]amino]methyl]piperidine-1-carbonyl]phenyl]-1-methyl-imidazole-2-carboxamide]: the IC90 turned out to be 650 nM.

As a reminder, the IC90 is the concentration needed for an effect of 90%.
